In the NIST ThermoML archive (doi:10.1016/j.jct.2006.09.012):
Values joined by “and” are separate entries in the source; they are usually repeats but may differ in a detail not shown here. Equal entries are not always repeated.

Details: Gas, Buoyancy - hydrostatic balance with magnetic suspension - two sinkers

N#N [nitrogen]
Details	mass density
340.01 K, 11962 kPa	114.845 kg/m3 and 114.844 kg/m3 and 114.842 kg/m3
340.01 K, 15961 kPa	150.241 kg/m3 and 150.238 kg/m3 and 150.239 kg/m3
340.01 K, 15962 kPa	150.242 kg/m3 and 150.24 kg/m3
340.01 K, 20072 kPa	184.447 kg/m3 [middle of 5 runs]
340.01 K, 20073 kPa	184.453 kg/m3
340.01 K, 24069 kPa	215.463 kg/m3
340.01 K, 24070 kPa	215.467 kg/m3 and 215.465 kg/m3 and 215.466 kg/m3
340.01 K, 28607 kPa	247.989 kg/m3 and 247.99 kg/m3
340.01 K, 28608 kPa	247.996 kg/m3 and 247.999 kg/m3 and 247.993 kg/m3
340.01 K, 33718 kPa	281.379 kg/m3
340.01 K, 33719 kPa	281.38 kg/m3 and 281.384 kg/m3
340.01 K, 33720 kPa	281.389 kg/m3 and 281.386 kg/m3
359.99 K, 5385.3 kPa	49.7747 kg/m3
359.99 K, 5385.4 kPa	49.7738 kg/m3 and 49.7746 kg/m3
359.99 K, 5385.5 kPa	49.7747 kg/m3 and 49.7744 kg/m3
359.99 K, 11539 kPa	104.182 kg/m3
359.99 K, 23337 kPa	197.246 kg/m3
360 K, 11538 kPa	104.181 kg/m3 and 104.18 kg/m3
360 K, 11539 kPa	104.182 kg/m3 and 104.181 kg/m3
360 K, 23336 kPa	197.238 kg/m3 and 197.239 kg/m3 and 197.241 kg/m3
360 K, 23337 kPa	197.243 kg/m3
379.99 K, 5685.7 kPa	49.5887 kg/m3 [middle of 4 runs]
379.99 K, 5685.8 kPa	49.589 kg/m3 and 49.5891 kg/m3
379.99 K, 12228 kPa	103.776 kg/m3 and 103.778 kg/m3
380 K, 12228 kPa	103.775 kg/m3 and 103.776 kg/m3
380 K, 24868 kPa	196.492 kg/m3 and 196.493 kg/m3 and 196.491 kg/m3
380 K, 24869 kPa	196.497 kg/m3 and 196.496 kg/m3 and 196.492 kg/m3
399.97 K, 499.5 kPa	4.2016 kg/m3 and 4.2015 kg/m3 and 4.2014 kg/m3
399.97 K, 999 kPa	8.3914 kg/m3 and 8.3913 kg/m3 and 8.3912 kg/m3
399.97 K, 1998 kPa	16.7314 kg/m3 and 16.7313 kg/m3 and 16.7315 kg/m3
399.97 K, 3996 kPa	33.2413 kg/m3 and 33.241 kg/m3 and 33.2411 kg/m3
399.97 K, 5994.1 kPa	49.4948 kg/m3 and 49.4949 kg/m3 and 49.4947 kg/m3
399.99 K, 5983.6 kPa	49.4072 kg/m3 and 49.4075 kg/m3
399.99 K, 5983.7 kPa	49.4089 kg/m3 and 49.4079 kg/m3
399.99 K, 5983.8 kPa	49.4087 kg/m3 and 49.4092 kg/m3
399.99 K, 12911 kPa	103.383 kg/m3
399.99 K, 12912 kPa	103.387 kg/m3
400 K, 12911 kPa	103.385 kg/m3 and 103.384 kg/m3 and 103.383 kg/m3
400 K, 12912 kPa	103.388 kg/m3
400 K, 26381 kPa	195.763 kg/m3 and 195.766 kg/m3
400 K, 26382 kPa	195.77 kg/m3
400 K, 26383 kPa	195.774 kg/m3
419.99 K, 6278.6 kPa	49.2274 kg/m3 [middle of 5 runs]
419.99 K, 13587 kPa	103.001 kg/m3 and 103.002 kg/m3
420 K, 13587 kPa	103 kg/m3 and 103.001 kg/m3 and 103.002 kg/m3
420 K, 27876 kPa	195.057 kg/m3 and 195.058 kg/m3 and 195.06 kg/m3
420 K, 27877 kPa	195.065 kg/m3 and 195.064 kg/m3
420 K, 27878 kPa	195.07 kg/m3
439.98 K, 499.5 kPa	3.8187 kg/m3 [middle of 5 runs]
439.98 K, 999 kPa	7.6237 kg/m3 and 7.6236 kg/m3 and 7.6238 kg/m3
439.98 K, 1998 kPa	15.1913 kg/m3 and 15.1914 kg/m3
439.98 K, 3995.9 kPa	30.1496 kg/m3 [middle of 4 runs]
439.98 K, 5993.9 kPa	44.8532 kg/m3 [middle of 4 runs]
439.99 K, 6571 kPa	49.0492 kg/m3
439.99 K, 6571.1 kPa	49.0504 kg/m3 and 49.0497 kg/m3 and 49.05 kg/m3
440 K, 14255 kPa	102.622 kg/m3 [middle of 6 runs]
440 K, 29348 kPa	194.34 kg/m3 and 194.342 kg/m3 and 194.344 kg/m3
440 K, 29349 kPa	194.345 kg/m3 and 194.347 kg/m3 and 194.348 kg/m3
459.99 K, 6861.3 kPa	48.8758 kg/m3 and 48.8757 kg/m3
460 K, 6861.3 kPa	48.8757 kg/m3 and 48.8759 kg/m3
460 K, 6861.4 kPa	48.8764 kg/m3
460 K, 14917 kPa	102.251 kg/m3 [middle of 5 runs]
460 K, 14918 kPa	102.253 kg/m3
460 K, 30809 kPa	193.675 kg/m3
460 K, 30810 kPa	193.681 kg/m3 and 193.677 kg/m3 and 193.678 kg/m3
460 K, 30811 kPa	193.683 kg/m3
460 K, 30812 kPa	193.69 kg/m3
479.99 K, 7148.6 kPa	48.7024 kg/m3
479.99 K, 7148.7 kPa	48.7027 kg/m3
480 K, 499.5 kPa	3.4995 kg/m3 [middle of 5 runs]
480 K, 999 kPa	6.9854 kg/m3 [middle of 5 runs]
480 K, 1998 kPa	13.9143 kg/m3 [middle of 5 runs]
480 K, 3996 kPa	27.6012 kg/m3 and 27.6015 kg/m3 and 27.6009 kg/m3
480 K, 5994 kPa	41.0449 kg/m3 and 41.045 kg/m3
480 K, 5994.1 kPa	41.0449 kg/m3 and 41.0443 kg/m3 and 41.045 kg/m3
480 K, 7148.6 kPa	48.7016 kg/m3 and 48.7015 kg/m3
480 K, 7148.7 kPa	48.7027 kg/m3
480 K, 15572 kPa	101.884 kg/m3 [middle of 5 runs]
480 K, 15573 kPa	101.886 kg/m3
480 K, 32254 kPa	193.025 kg/m3
480 K, 32255 kPa	193.027 kg/m3 and 193.029 kg/m3
480 K, 32256 kPa	193.032 kg/m3 and 193.035 kg/m3
500 K, 7433.7 kPa	48.5307 kg/m3 and 48.5313 kg/m3
500 K, 7433.8 kPa	48.531 kg/m3 and 48.5323 kg/m3 and 48.5317 kg/m3
500 K, 7433.9 kPa	48.5314 kg/m3
500 K, 16220 kPa	101.517 kg/m3 and 101.518 kg/m3 and 101.519 kg/m3
500 K, 16221 kPa	101.519 kg/m3 and 101.521 kg/m3
500 K, 33681 kPa	192.377 kg/m3
500 K, 33682 kPa	192.38 kg/m3 and 192.382 kg/m3
500 K, 33683 kPa	192.384 kg/m3
500 K, 33684 kPa	192.389 kg/m3
500 K, 33686 kPa	192.396 kg/m3
